The values below come from patent publication US20150025131A1 (priority 2013, published 2015).

One data set deals with serum IL-1β. The data set can be described thus: Adjuvant induced arthritis model, serum IL-1β. It counts as in vivo, Sprague Dawley rats. Conditions: AIA rats, daily intraperitoneal; Patuletin 25 mg/kg, indomethacin 5 mg/kg. As to the method: (§1) All studies were carried out using Female Sprague Dawley (SD) rats weighing 150-250 gms. Animals were kept at 21±2° C. and on a 12-h light/dark cycle, received standardized pelleted diet and tap water. Experiments were performed under the ethical guidelines of the International Association for the study of pain in conscious animals. Each group contains 12 animals with randomly distributed weights into each treatment group.
Arthritis was induced by injecting freshly prepared 100 μL of 1 mg suspension of lyophilized Mycobacterium tuberculosis H37Ra (MT H37Ra; DIFCO Laboratories, Detroit, Mich., USA), subcutaneously at the rat tail base using sterile hypodermic needle. Inoculation was carried out under anesthesia with a combination of 20 mg/kg ketamine and 5 mg/kg xylazine, injected intraperitoneally. Compound and the reference drug were administered daily, intraperitoneally using sterile syringes. The positive control received vehicle (5% DMSO+PBS) or saline only; treatment groups received test compounds (25 mg/kg), whereas reference group received indomethacin (5 mg/kg). The doses of the test compounds were selected after preliminary dose finding studies. […]
The quantitative measurement of TNF-α and IL-1β was done in serum of all groups of animals including arthritic and non-arthritic using commercial ELISA assay kits (Abcam, USA) according to the manufacturer's instructions. […]

Data set [1] has as its system NIH 3T3 mouse fibroblast cells. Nature of the data set: MTT cytotoxicity assay, NIH 3T3. It counts as cell-based. As to the method: (§2) Cell cytotoxicity assay was performed using three different cell lines NIH 3T3 (mouse embryo, fibroblast cells), CC1 (rat, epithelial, liver cell) and MDBK (bovine kidney) cells using MTT (3-[4,5-dimethylthiazole-2-yl]-2,5-diphenyl-tetrazolium bromide) colorimetric assay. Briefly 3T3 were grown in DMEM, supplemented with 10% of fetal bovine serum (FBS), and 1% penicillin-streptomycin whereas CC1 (rat epithelial liver cells) were cultured in EMEM, 2 mM Glutamine, 1% Non-Essential Amino Acids (NEAA), 20 mM HEPES, 10% Foetal Bovine Serum (FBS) and 1% penicillin-streptomycin, and MDBK cells were grown in 10% of fetal bovine serum (FBS) in 75 cm^2 flask, and incubated in 5% CO2 incubator at 37° C. until they attain 70% confluency. Cells were then harvested by centrifuging at 200 g for 5 min at 25° C., counted using heamocytometer and their concentration was adjusted to 6×10^4 cells/mL. 100 μL of Cells were then plated in 96 well plate and incubated overnight. Next day the supernatant was carefully removed and 200 μL of fresh medium was added with three different concentration of compound (1, 10, 50) μg/mL. […] The extent of MTT reduction to formazan within cells was calculated by measuring the absorbance at 540 nm; using a micro plate reader (Spectra Max plus 340, Molecular Devices, Calif., USA). […] The percent inhibition was calculated by using the following formula: […]
(In general: Formazan colour is commonly taken as a measure of viable cells.)

Data set [2] in a line: MTT cytotoxicity assay, NIH 3T3. The data set is classed as cell-based, mouse. Conditions: mouse, NIH 3T3 mouse embryo fibroblast cells, 48 h incubation, read-out: Cytotoxicity (IC50 μg/mL) NIH 3T3 cells. As to the method:
as §2

Data set [3] has as its system ROS production from PMA activated RAW. 267 cells (murine macrophages). The data set can be described thus: Lucigenin enhanced (myeloperoxidase independent) oxidative burst. The data set is classed as cell-based. The settings on record: Mus musculus, Macrophage. As to the method:
Intracellular effect was determined using human peripheral whole blood phagocytes and isolated neutrophils and from mice peritoneum macrophages, where luminol-enhanced chemillumenescence assay was applied. The effect on myeloperoxidase independent ROS production was determined using lucigenin on murine macrophages RAW.267 cells. […] Table 2. […] 267 cells (murine macrophages). DPI is used as standard drug. Reading presents mean±SD of three determinations.

In a further data set the test system is rheumatoid factor. Nature of the data set: Adjuvant induced arthritis model, serum RA factor. It counts as in vivo, Sprague Dawley rats. The settings on record: AIA rats, daily intraperitoneal; Patuletin 25 mg/kg, indomethacin 5 mg/kg. As to the method:
as §1
Arthritis was induced by injecting freshly prepared 100 μL of 1 mg suspension of lyophilized Mycobacterium tuberculosis H37Ra (MT H37Ra; DIFCO Laboratories, Detroit, Mich., USA), subcutaneously at the rat tail base using sterile hypodermic needle. Inoculation was carried out under anesthesia with a combination of 20 mg/kg ketamine and 5 mg/kg xylazine, injected intraperitoneally. Compound and the reference drug were administered daily, intraperitoneally using sterile syringes. […]
Measurement of RA factor in rat serum was determined using Tina-quant RFII Kit (Roche Diagnostics, USA) and automated analyzers according to manufacturer's instructions. The test principle involves the reaction of latex bound heat inactivated IgG (antigen) with RF antibodies in the sample to form Ag/Ab complex resulting in agglutination which can be measured turbidimetrically.

Data set [4] can be described thus: MTT cytotoxicity assay, MDBK. The settings on record: bovine, MDBK bovine kidney cells, 48 h incubation, read-out: Cytotoxicity (IC50 μg/mL) MDBK cells. It counts as cell-based, bovine. As to the method: as §2
Another data set deals with MDBK bovine kidney cells. Nature of the data set: MTT cytotoxicity assay, MDBK. The data set is classed as cell-based. As to the method:
as §2

Data set [5] relates to ROS production from human neutrophils. Nature of the data set: Luminol enhanced chemiluminescence oxidative burst, isolated neutrophils. It counts as cell-based. The settings on record: Neutrophil, serum opsonized zymosan, read-out: Myeloperoxidase dependent Oxidative Burst (IC50 μg/mL) Neutrophils. As to the method:
Intracellular effect was determined using human peripheral whole blood phagocytes and isolated neutrophils and from mice peritoneum macrophages, where luminol-enhanced chemillumenescence assay was applied. The effect on myeloperoxidase independent ROS production was determined using lucigenin on murine macrophages RAW.267 cells.
Table 2. […] 267 cells (murine macrophages). DPI is used as standard drug. Reading presents mean±SD of three determinations.
Heparinized blood was obtained by vein puncture aseptically, from healthy volunteers (25-38 years age). The buffy coat containing polymorhonuclear neutrophils (PMNs) was collected by dextran sedimentation, and cells were isolated after the LSM density gradient centrifugation. […]
Luminol enhanced chemiluminescence technique was applied to study the effect of compound on ROS from phagocytes, Using whole blood, neutrophil and macrophages Briefly, 25 μL diluted whole blood (1:50 dilution in sterile HBSS^++) or 25 μL of PMNs (1×10^6), or 25 μL of isolated macrophages (1×10^6) were incubated with 25 μL of compound in triplicates and using three different concentrations (1, 10 and 100 μg/mL) using white 96 wells plates. […] Results were monitored as relative light unit (RLU) reading, with peak and total integral values set with repeated scans at 60 seconds intervals, and 1 second points measuring time.

Values after ≈ are worked out from the molar mass of the structure shown. “Also recorded” adds a separate entry of the source. Read-outs that look alike come from different tables or passages of the source.

In the case of `COc1c(O)cc2oc(-c3ccc(O)c(O)c3)c(O)c(=O)c2c1O` [Patuletin, 3,5,7,3′,4′-pentahydroxy-6-methoxy flavones], in the data set on serum IL-1β, the “level of IL-1β in serum versus arthritic control group” value was “significant decrease; also recorded: marked decrease”. Moreover, the “cytotoxicity on NIH 3T3 mouse fibroblast cells (in words)” value in data set [1] is “no cytotoxicity”. The values for the IC50 at 48 h in data set [2] and in data set [4] were 36.4 ± 6.9 µg/mL (≈ 110 µM) and 12.6 ± 0.4 µg/mL (≈ 37.9 µM), respectively. The IC50 in data set [3] (compared to DPI as standard drug, read-out: inhibition of extracellular ROS species (IC50), unit inferred) stood at 0.3 µg/mL; in data set [3] (lucigenin enhanced, PMA activated RAW. 267 cells, read-out: Myeloperoxidase independent Oxidative Burst (IC50 μg/mL) on macrophages) it was 0.3 ± 0.03 µg/mL; in data set [5] it was 1.2 µg/mL. For the same molecule, in the data set on rheumatoid factor, the “level of RA factor (rheumatoid factor) in serum versus arthritic control group” value was “marked decrease”. For the same molecule, the “cytotoxicity on MDBK bovine kidney cells (in words)” value in the data set on MDBK bovine kidney cells is given as “no cytotoxicity”.
